Where no end group is shown, it is not given here.

Data set [1] has as its system human red blood cells (RBCs).
Experimental: Fresh human red blood cells (RBCs) with EDTA as anticoagulant were rinsed three times with phosphate-buffer saline (PBS) by centrifugation at 800 × g for 10 min and resuspended in PBS. […] Then, the stock solution of RBCs was added to reach a final volume of 100 µL with 4% concentration of erythrocytes (v/v). The control wells for 0% hemolysis and 100% hemolysis consisted of RBCs suspended in PBS and 1% of Triton X–100, respectively. Subsequently, the plates were incubated for 60 min at 37 °C and then centrifuged at 800 × g for 10 min at 4 °C (Sorvall ST 16R Centrifuge, Thermo Scientific). After centrifugation, the supernatant was carefully resuspended to new microtiter plates and the release of hemoglobin was monitored by measurement of absorbance at 540 nm (Multiskan™ GO Microplate Spectrophotometer, Thermo Scientific). All experiments were conducted in triplicate.
Data set [2] deals with S. aureus (29): reference (5) and clinical (24) strains. Conditions: for Mean value of MIC: mean over 29 S. aureus strains (Table 5). As to the method: Microbiological assays were performed using reference and clinical strains of Staphylococcus aureus. Minimal inhibitory concentrations (MIC) were determined by broth microdilution method on 96-well polystyrene plates according to Clinical and Laboratory Standards Institute (CLSI) recommendations [Clinical and Laboratory Standards Institute (CLSI) [2012]]. […] All plates were incubated for 18 h at 37 °C. […] Reference strains of S. aureus: ATCC 6538, ATCC 6538/P, ATCC 9144, ATCC 12598, and ATCC 25923 were obtained from the Polish Collection of Microorganisms (PCM, Polish Academy of Sciences, Wrocław), whereas 24 clinical strains were isolated from the patients of the Clinic of Dermatology, Venereology and Allergology (Medical University of Gdańsk). Nine strains were characterized as methicillin-resistant (MRSA). Preliminary identification and detection was conducted on the ChromID MRSA/ChromID S. aureus biplate (bioMérieux) for the simultaneous detection of S. aureus and methicillin-resistant S. aureus (MRSA). All experiments were conducted at least in triplicate.
To asses an overall activity of peptides, the mean MIC values were calculated.

For data set [3] the following is noted: prolonged storage; in words; ref Nayan Desai [2013]; cited from earlier work.
In a further data set the test system is S. aureus K19N. It is filed as cell-based, Staphylococcus aureus. Conditions: clinical strain, broth microdilution, 0.5 × 10^5 CFU/mL, 18 h, 37 °C, at least triplicate. As to the method:
(§1) Microbiological assays were performed using reference and clinical strains of Staphylococcus aureus. Minimal inhibitory concentrations (MIC) were determined by broth microdilution method on 96-well polystyrene plates according to Clinical and Laboratory Standards Institute (CLSI) recommendations [Clinical and Laboratory Standards Institute (CLSI) [2012]]. For this purpose, the initial inoculums of 0.5 × 10^5 CFU/mL of bacteria were exposed to a range of concentrations of the peptides (0.5–256 µg/mL). All plates were incubated for 18 h at 37 °C. MIC was taken as the lowest concentration of the compound at which the growth of bacteria was not observed. Reference strains of S. aureus: ATCC 6538, ATCC 6538/P, ATCC 9144, ATCC 12598, and ATCC 25923 were obtained from the Polish Collection of Microorganisms (PCM, Polish Academy of Sciences, Wrocław), whereas 24 clinical strains were isolated from the patients of the Clinic of Dermatology, Venereology and Allergology (Medical University of Gdańsk). Nine strains were characterized as methicillin-resistant (MRSA). Preliminary identification and detection was conducted on the ChromID MRSA/ChromID S. aureus biplate (bioMérieux) for the simultaneous detection of S. aureus and methicillin-resistant S. aureus (MRSA). All experiments were conducted at least in triplicate.
(In broth dilution the organism is exposed to a series of concentrations in liquid medium.)

A further data set relates to S. aureus 013S. It is filed as cell-based, Staphylococcus aureus. To be noted: clinical strain, broth microdilution, 0.5 × 10^5 CFU/mL, 18 h, 37 °C, at least triplicate. As to the method: as §1
A further data set has as its system S. aureus 051S. It is filed as cell-based, Staphylococcus aureus. To be noted: clinical strain, broth microdilution, 0.5 × 10^5 CFU/mL, 18 h, 37 °C, at least triplicate. As to the method: as §1
The test system of a further data set is S. aureus 053N. The class given is cell-based, Staphylococcus aureus. To be noted: clinical strain, broth microdilution, 0.5 × 10^5 CFU/mL, 18 h, 37 °C, at least triplicate. As to the method: as §1
Another data set relates to S. aureus 001S (MRSA). It is filed as cell-based, Staphylococcus aureus. Conditions: clinical strain, broth microdilution, 0.5 × 10^5 CFU/mL, 18 h, 37 °C, at least triplicate. As to the method:
as §1

The next data set concerns S. aureus ATCC 12598. It is filed as cell-based, Staphylococcus aureus. Conditions: ATCC 12598, reference strain; broth microdilution, 0.5 × 10^5 CFU/mL, 18 h, 37 °C, at least triplicate. As to the method:
as §1

The test system of the next data set is S. aureus 017N (MRSA). It is filed as cell-based, Staphylococcus aureus. Conditions: clinical strain, broth microdilution, 0.5 × 10^5 CFU/mL, 18 h, 37 °C, at least triplicate. As to the method: as §1
A further data set relates to S. aureus ATCC 9144. The class given is cell-based, Staphylococcus aureus. To be noted: ATCC 9144, reference strain; broth microdilution, 0.5 × 10^5 CFU/mL, 18 h, 37 °C, at least triplicate. As to the method: as §1
A further data set concerns S. aureus 048S. The class given is cell-based, Staphylococcus aureus. To be noted: clinical strain, broth microdilution, 0.5 × 10^5 CFU/mL, 18 h, 37 °C, at least triplicate. As to the method: as §1
A further data set deals with S. aureus 015N (MRSA). It is filed as cell-based, Staphylococcus aureus. Conditions: clinical strain, broth microdilution, 0.5 × 10^5 CFU/mL, 18 h, 37 °C, at least triplicate. As to the method: as §1
The next data set concerns S. aureus ATCC 25923. The class given is cell-based, Staphylococcus aureus. To be noted: ATCC 25923, reference strain; broth microdilution, 0.5 × 10^5 CFU/mL, 18 h, 37 °C, at least triplicate. As to the method:
as §1

The test system of another data set is S. aureus 033N. It is filed as cell-based, Staphylococcus aureus. To be noted: clinical strain, broth microdilution, 0.5 × 10^5 CFU/mL, 18 h, 37 °C, at least triplicate. As to the method:
as §1

The next data set deals with S. aureus K46N. It is filed as cell-based, Staphylococcus aureus. Conditions: clinical strain, broth microdilution, 0.5 × 10^5 CFU/mL, 18 h, 37 °C, at least triplicate. As to the method:
as §1

A further data set relates to S. aureus 005S. The class given is cell-based, Staphylococcus aureus. To be noted: clinical strain, broth microdilution, 0.5 × 10^5 CFU/mL, 18 h, 37 °C, at least triplicate. As to the method:
as §1

The next data set deals with S. aureus 002S. It is filed as cell-based, Staphylococcus aureus. To be noted: clinical strain, broth microdilution, 0.5 × 10^5 CFU/mL, 18 h, 37 °C, at least triplicate. As to the method: as §1
A further data set deals with S. aureus 017S (MRSA). The class given is cell-based, Staphylococcus aureus. To be noted: clinical strain, broth microdilution, 0.5 × 10^5 CFU/mL, 18 h, 37 °C, at least triplicate. As to the method:
as §1

The subject of the next data set is S. aureus 039N. It is filed as cell-based, Staphylococcus aureus. Conditions: clinical strain, broth microdilution, 0.5 × 10^5 CFU/mL, 18 h, 37 °C, at least triplicate. As to the method:
as §1

The test system of another data set is S. aureus 001N (MRSA). It is filed as cell-based, Staphylococcus aureus. To be noted: clinical strain, broth microdilution, 0.5 × 10^5 CFU/mL, 18 h, 37 °C, at least triplicate. As to the method: as §1
A further data set has as its system S. aureus K50S. It is filed as cell-based, Staphylococcus aureus. Conditions: clinical strain, broth microdilution, 0.5 × 10^5 CFU/mL, 18 h, 37 °C, at least triplicate. As to the method: as §1
The test system of a further data set is S. aureus ATCC 6538. The class given is cell-based, Staphylococcus aureus. Conditions: ATCC 6538, reference strain; broth microdilution, 0.5 × 10^5 CFU/mL, 18 h, 37 °C, at least triplicate. As to the method:
as §1

The subject of the next data set is S. aureus 004N (MRSA). It is filed as cell-based, Staphylococcus aureus. Conditions: clinical strain, broth microdilution, 0.5 × 10^5 CFU/mL, 18 h, 37 °C, at least triplicate. As to the method:
as §1

A further data set has as its system S. aureus 051N (MRSA). The class given is cell-based, Staphylococcus aureus. To be noted: clinical strain, broth microdilution, 0.5 × 10^5 CFU/mL, 18 h, 37 °C, at least triplicate. As to the method:
as §1

In another data set the test system is S. aureus 030N. It is filed as cell-based, Staphylococcus aureus. To be noted: clinical strain, broth microdilution, 0.5 × 10^5 CFU/mL, 18 h, 37 °C, at least triplicate. As to the method:
as §1

For the next data set, the system named is S. aureus 045N. The class given is cell-based, Staphylococcus aureus. Conditions: clinical strain, broth microdilution, 0.5 × 10^5 CFU/mL, 18 h, 37 °C, at least triplicate. As to the method:
as §1

The subject of the next data set is S. aureus 002N. The class given is cell-based, Staphylococcus aureus. Conditions: clinical strain, broth microdilution, 0.5 × 10^5 CFU/mL, 18 h, 37 °C, at least triplicate. As to the method: as §1
Another data set has as its system S. aureus 043SC (MRSA). It is filed as cell-based, Staphylococcus aureus. Conditions: clinical strain, broth microdilution, 0.5 × 10^5 CFU/mL, 18 h, 37 °C, at least triplicate. As to the method: as §1
In a further data set the test system is S. aureus 024N (MRSA). It is filed as cell-based, Staphylococcus aureus. To be noted: clinical strain, broth microdilution, 0.5 × 10^5 CFU/mL, 18 h, 37 °C, at least triplicate. As to the method:
as §1

A further data set concerns S. aureus 060S. The class given is cell-based, Staphylococcus aureus. To be noted: clinical strain, broth microdilution, 0.5 × 10^5 CFU/mL, 18 h, 37 °C, at least triplicate. As to the method:
as §1

The next data set relates to S. aureus ATCC 6538/P. The class given is cell-based, Staphylococcus aureus. Conditions: reference strain, broth microdilution, 0.5 × 10^5 CFU/mL, 18 h, 37 °C, at least triplicate. As to the method: as §1

As for FLPLIGRVLSGIL-NH2 [Temporin A], the hemolysis in [1] (at 256 µg/mL, human RBCs 4% (v/v) in PBS, 60 min, 37 °C, absorbance 540 nm, 100% = 1% Triton X-100, triplicate) is listed as not above 4%. Further, the “hemolysis of RBCs” value in data set [1] (human RBCs, in words) is “almost undetectable”. Moreover, the “MIC range among strains” value in data set [2] (range over all S. aureus strains and the salts of the peptide) fell in the range of 2 to 8 µg/mL.

With “GIGKFLKKAKKFGKAFVKILKK-NH2 [Pexiganan AcO^−]”, the “stability of the salt form” value in data set [3] is “the most stable even during prolonged storage”. For the same substance, the “hemolysis of RBCs at the mean MIC value” in data set [1] (human RBCs, at the mean MIC value, in words) is recorded as “ignorable”. Moreover, the “Mean value of MIC” value in [2] turned out to be 7.1 µg/mL.

On to KWKLFKKIGAVLKVL-NH2 [CAMEL TFA^−], for which the minimal inhibitory concentration (MIC) with S. aureus K19N is listed as 4 µg/mL; against S. aureus 013S, “≤ (≤ alone stands for MIC ≤ 0.25 µg/mL)”; against S. aureus 051S, 2 µg/mL; against S. aureus 053N it was 4 µg/mL; against S. aureus 001S (MRSA), 4 µg/mL; against S. aureus ATCC 12598 it was 4 µg/mL. Further, the MIC against S. aureus 017N (MRSA) turned out to be 4 µg/mL; against S. aureus ATCC 9144, 8 µg/mL; with S. aureus 048S, 4 µg/mL; against S. aureus 015N (MRSA), 4 µg/mL; against S. aureus ATCC 25923, 8 µg/mL; against S. aureus 033N, 4 µg/mL. Further, the MIC with S. aureus K46N was 4 µg/mL; with S. aureus 005S, “≤ (≤ alone stands for MIC ≤ 0.25 µg/mL)”; against S. aureus 002S, 4 µg/mL; in the data set on S. aureus 017S (MRSA) it was 2 µg/mL; against S. aureus 039N it was 4 µg/mL; in the data set on S. aureus 001N (MRSA), 4 µg/mL. For the same substance, the MIC in the data set on S. aureus K50S was 1 µg/mL; in the data set with S. aureus ATCC 6538, 2 µg/mL; against S. aureus 004N (MRSA) it was 4 µg/mL; with S. aureus 051N (MRSA), 4 µg/mL; against S. aureus 030N, 4 µg/mL; against S. aureus 045N, 4 µg/mL. Further, the MIC against S. aureus 002N is recorded as 4 µg/mL; in the data set on S. aureus 043SC (MRSA), 4 µg/mL; against S. aureus 024N (MRSA), “≤ (≤ alone stands for MIC ≤ 0.25 µg/mL)”; against S. aureus 060S, 2 µg/mL; with S. aureus ATCC 6538/P, 4 µg/mL. Moreover, the “Mean value of MIC” value in data set [2] is reported as not above 3.5 µg/mL. The “Mean MIC values” in [2] (mean over 29 S. aureus strains, as repeated in Table 6) was not above 3.5 µg/mL.

What is called MIC is the lowest concentration that inhibits growth of the organism. High values mean weaker potency, low ones greater potency.

(Values after paper PMC5917001, “Counter-ion effect on antistaphylococcal activity and cytotoxicity of selected antimicrobial peptides” (Amino Acids, 2018).)
